According to the NIST ThermoML archive (doi:10.1021/je700260f):

Conditions: 323.14 K, Liquid, Vibrating tube method

FC(C(F)(F)F)C(F)(F)F [1,1,1,2,3,3,3-heptafluoropropane]
Conditions | mass density [kg/m3]
4100 kPa | 1311
4120 kPa | 1311.1
4140 kPa | 1311.5
4170 kPa | 1311.8
4190 kPa | 1312
4220 kPa | 1312.3
4240 kPa | 1312.4
4270 kPa | 1312.8
4290 kPa | 1313.1
4310 kPa | 1313.2
4330 kPa | 1313.5
4360 kPa | 1313.8
4380 kPa | 1313.9
4400 kPa | 1314.2
4420 kPa | 1314.6
4440 kPa | 1314.6
4470 kPa | 1314.9
4500 kPa | 1315.2
4510 kPa | 1315.3
4540 kPa | 1315.5
4560 kPa | 1315.8
4590 kPa | 1316
4610 kPa | 1316.2
4640 kPa | 1316.6
4660 kPa | 1316.8
4690 kPa | 1317.1
4710 kPa | 1317.3
4740 kPa | 1317.6
4960 kPa | 1319.7
4980 kPa | 1320.1
5020 kPa | 1320.3
5040 kPa | 1320.6
5070 kPa | 1320.9
5100 kPa | 1321.1
5130 kPa | 1321.4
5150 kPa | 1321.7
5180 kPa | 1321.7
5200 kPa | 1322
5220 kPa | 1322.3
5250 kPa | 1322.6
5280 kPa | 1322.9
5310 kPa | 1323.2
5330 kPa | 1323.3
5360 kPa | 1323.7
5390 kPa | 1323.9
5420 kPa | 1324.1
5440 kPa | 1324.3
5470 kPa | 1324.7
5490 kPa | 1324.9
5520 kPa | 1325.2
5540 kPa | 1325.4
5570 kPa | 1325.7
5600 kPa | 1325.9
5630 kPa | 1326.2
5650 kPa | 1326.4
5670 kPa | 1326.6
5960 kPa | 1329.4
5990 kPa | 1329.5
6010 kPa | 1329.7
6030 kPa | 1330
6050 kPa | 1330
6080 kPa | 1330.3
6100 kPa | 1330.6
6120 kPa | 1330.7
6140 kPa | 1330.8
6160 kPa | 1331.1
6180 kPa | 1331.2
6200 kPa | 1331.4
6230 kPa | 1331.8
6240 kPa | 1331.8
6270 kPa | 1332
6290 kPa | 1332.4
6310 kPa | 1332.4
6330 kPa | 1332.6
6350 kPa | 1333
6380 kPa | 1333.1
6390 kPa | 1333.3
6410 kPa | 1333.5
6463 kPa | 1333.8
6556 kPa | 1334.6
6581 kPa | 1334.8
6778 kPa | 1336.5
6803 kPa | 1336.7
6825 kPa | 1337
6840 kPa | 1337.1
6865 kPa | 1337.3
6881 kPa | 1337.4
6903 kPa | 1337.7
6923 kPa | 1337.8
6947 kPa | 1338.1
6974 kPa | 1338.2
7006 kPa | 1338.7
7056 kPa | 1338.9
7083 kPa | 1339.2
7103 kPa | 1339.4
7124 kPa | 1339.5
7147 kPa | 1339.7
7168 kPa | 1339.9
7194 kPa | 1340.2
7215 kPa | 1340.4
7245 kPa | 1340.6
7268 kPa | 1340.7
